# Reference: patent US11254671B2, “Chemical compounds” (GLAXOSMITHKLINE INTELLECTUAL PROPERTY DEVELOPMENT LIMITED, priority 2017, dated 2022)
# System: phosphorylated Akt at serine 473 (pAKTs473) in primary human lung fibroblasts
# Assay: Highthroughput phosphorylated Akt (Ser473) in vitro immunoassay (MSD)
# Type: cell-based
# Settings: Fibroblast, 1 h compound, PDGF-BB 10 ng/ml for 10 min, mean of multiple experiments, read-out: mean pIC50, inhibition of pAkt (Ser473) (converted)
# Summary of the method: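 Primary human lung fibroblasts in 0.4% FBS were preincubated with compound for 1 h at 37 °C (11-point curve, 0.1% DMSO final), then stimulated with 10 ng/ml PDGF-BB for 10 min. pAkt Ser473 in lysates was measured by MSD electrochemiluminescence; IC50 was derived by non-linear regression between stimulated and unstimulated controls.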
row,SMILES,IC50
1,"CC[C@H]1COCCN1c1cc(CS(=O)(=O)N(C)C)cc(-c2ccc3[nH]c(CO)cc3n2)n1 [Example 35, 1-{2-[(3S)-3-ethylmorpholin-4-yl]-6-[2-(hydroxymethyl)-1H-pyrrolo[3,2-b]pyridin-5-yl]pyridin-4-yl}-N,N-dimethylmethanesulfonamide]",2.51 to 10 nM
2,"CC[C@H]1COCCN1c1cc(C(C)(C)S(N)(=O)=O)cc(-c2ccc3[nH]c(CNC)cc3n2)n1 [Example 28, 2-{2-[(3S)-3-ethylmorpholin-4-yl]-6-{2-[(methylamino)methyl]-1H-pyrrolo[3,2-b]pyridin-5-yl}pyridin-4-yl}propane-2-sulfonamide]",3.16 to 316 nM
